In article PMC11219945, “Assessing genotoxic effects of chemotherapy agents by a robust in vitro assay based on mass spectrometric quantification of γ-H2AX in HepG2 cells” (Frontiers in Pharmacology, 2024):
Where a name gives a salt, the structure may show the parent alone.

Key:
γ-H2AX in HepG2 cells [1] = assay: γ-H2AX MS assay, dose-effect relationship in HepG2 cells; settings: for Genotoxicity in γ-H2AX MS assay: tested concentration 1 mM
Procedure: Human hepatoblastoma cells (HepG2) were cultivated in DMEM medium under standard conditions (37°C in a 5% CO2 atmosphere). The culturing medium was added with 10% FBS, 100 U/mL penicillin and 100 μg/mL streptomycin.
In accordance to our previous study, cells were exposed to the chemotherapeutic agent by adding a proper volume of chemotherapeutic agent stock solution to the fresh medium without serum. Controls were treated with DMSO (0.1%) in medium. Independent biological experiments with three technical replicates were conducted.
The cells were then treated with different chemotherapy agents in serum-free medium. For a dose-effect relationship experiment, cells were exposed to each agent at either of three concentrations with a 10-fold increase for 24 h. For the time-effect relationship experiment of nine tested chemotherapy agents, cells were exposed to selected chemotherapy agents at 0.5, 1, 2, 4, 8, 12, and 24 h, with the concentration of 100 μM. Independent biological experiments with three technical replicates were performed.
(§1) The quantification of γ-H2AX was carried out according to the previous report ([Qu et al., 2021]). In short, the cell clumps were collected after a certain period of cell culture and histones were obtained by acid extraction. After nuclear isolation, histone extraction, trypsin digestion in the solution, and desalting, the peptide sample from the carboxy terminus of H2AX was analyzed. LC–MS/MS analysis was conducted using a QTRAP 5500 (AB Sciex, Framingham, United States) with an ACQUITY UPLC system (Waters Co., Manchester, United Kingdom). Chromatographic separation was carried out with an ACQUITY UPLC BEH C18 column (100 mm × 2.1 mm, 1.7 μm). The column temperature was maintained at 40°C. A 10 μL sample aliquot was injected for analysis. Mobile phases A and B were 0.1% FA in distilled H2O and acetonitrile, respectively. […] The eluent composition was maintained for 2 min, after which the system returned to 1% B and was re-equilibrated for 2 min. The eluates in the first 1 min were switched to waste to prevent contaminating the ion source. The electrospray ionization source was operated in positive mode using nitrogen as the nebulizing gas. All experiments were performed independently in at least triplicate.
To this end, we firstly examined the cytotoxicity of 34 chemotherapy agents, all of which were already well classified in terms of diverse characteristics. These tested chemotherapy agents were serially diluted for exposure to check the effects on cell viability.

[2] = combination of in vitro mouse lymphoma, chromosomal aberration, and micronucleus tests; cited from earlier work
γ-H2AX in HepG2 cells [3] = assay: γ-H2AX time-effect relationship / DNA repair kinetics (k, t50) in HepG2 cells; format: cell-based, Human; parameters: k (speed of γ-H2AX descending): unit not given here; settings: 100 μM, 0.5–8 h time-dependent kinetics
Procedure: The cells were then treated with different chemotherapy agents in serum-free medium. […] Independent biological experiments with three technical replicates were performed.
as §1, with “In” for “The quantification of γ-H2AX was carried out according to the previous report ([Qu et al., 2021]). In”
Here, we estimated k and t50 after exposure to nine representative chemotherapy agents based on the 0.5–8 h γ-H2AX time-dependent kinetics (Figure 5) and then obtained these parameters to describe each agent DSB repair capacity using the functions optim and optimize in R language.

| SMILES | maximum γ-H2AX value within the selected concentration range (γ-H2AX in HepG2 cells [1]; human, 24 h) | In vitro assays (genotoxicity) [2] | further results |
| --- | --- | --- | --- |
| CC[C@]1(O)C[C@H]2CN(CCc3c([nH]c4ccccc34)[C@@](C(=O)OC)(c3cc4c(cc3OC)N(C=O)[C@H]3[C@@](O)(C(=O)OC)[C@H](OC(C)=O)[C@]5(CC)C=CCN6CC[C@]43[C@@H]65)C2)C1 [Vincristine] | 3 |  | Variation of γ-H2AX (γ-H2AX in HepG2 cells [1]; human, 24 h): no variations of γ-H2AX |
| COc1cccc2c1C(=O)c1c(O)c3c(c(O)c1C2=O)C[C@@](O)(C(=O)CO)C[C@@H]3O[C@H]1C[C@H](N)[C@@H](O)[C@H](C)O1 [Epirubicin hydrochloride] | 18 | + | γ-H2AX MEC/MS (minimum effective concentration) (γ-H2AX in HepG2 cells [1]; human, 24 h): 0.01 µM |
| C[C@]12CCC(=O)C(O)=C1CC[C@@H]1[C@@H]2CC[C@]2(C)C(=O)CC[C@@H]12 [Formestane] |  | − | maximum γ-H2AX value within the selected concentration range (γ-H2AX in HepG2 cells [1]; HepG2 cells, 24 h): 3.2; Genotoxicity in γ-H2AX MS assay (γ-H2AX in HepG2 cells [1]; HepG2 cells, 24 h): none of the selected antitumor hormones exhibited genotoxicity |
| CC(C)(C#N)c1cc(Cn2cncn2)cc(C(C)(C)C#N)c1 [Anastrozole] |  | − |  |
| CC(=O)O[C@H]1C(=O)[C@@]2(C)[C@H]([C@H](OC(=O)c3ccccc3)[C@]3(O)C[C@H](OC(=O)[C@H](O)[C@@H](NC(=O)c4ccccc4)c4ccccc4)C(C)=C1C3(C)C)[C@]1(OC(C)=O)CO[C@@H]1C[C@@H]2O [Paclitaxel] |  |  | Variation of γ-H2AX (γ-H2AX in HepG2 cells [1]; human, 24 h): no variations of γ-H2AX |
| CCC1(c2ccc(N)cc2)CCC(=O)NC1=O (centres unmarked) [Aminoglutethimide] | 2.9 | − |  |
| CC[C@@]1(O)C(=O)OCc2c1cc1n(c2=O)Cc2cc3c(CN(C)C)c(O)ccc3nc2-1 [Topotecan] | 18.4 | + | k (speed of γ-H2AX descending) (γ-H2AX in HepG2 cells [3]): 0.132; t50 (time required for γ-H2AX to drop to half of the maximum value) (γ-H2AX in HepG2 cells [3]): 3.545 h |
| CC/C(=C(\c1ccccc1)c1ccc(OCCN(C)C)cc1)c1ccccc1 [Tamoxifen] | 3.1 | − |  |
| Nc1nc2nc[nH]c2c(=S)[nH]1 [Thioguanine] | 6.6 | + |  |
| O=P1(N(CCCl)CCCl)NCCCO1 (centres unmarked) [Cyclophosphamide] |  | + | maximum γ-H2AX value within the selected concentration range (γ-H2AX in HepG2 cells [1]; HepG2 cells, 24 h): 7.4; Genotoxicity in γ-H2AX MS assay (γ-H2AX in HepG2 cells [1]; HepG2 cells, 24 h): genotoxic; γ-H2AX MEC/MS (minimum effective concentration) (γ-H2AX in HepG2 cells [1]; HepG2 cells, 24 h exposure): ↑(1000) µM |
| NC(=O)NO [Hydroxyurea] |  | + | MEC in γ-H2AX MS assay (γ-H2AX in HepG2 cells [1]): 1 mM |
| O=C1[O][Pt]2([NH][C@@H]3CCCC[C@H]3[NH]2)[O]C1=O [Oxaliplatin] |  | + | maximum γ-H2AX value within the selected concentration range (γ-H2AX in HepG2 cells [1]; HepG2 cells, 24 h): 7.51; γ-H2AX MEC/MS (minimum effective concentration) (γ-H2AX in HepG2 cells [1]; HepG2 cells, 24 h exposure): ↑(100) µM; γ-H2AX MEC/MS (minimum effective concentration) (γ-H2AX in HepG2 cells [1]; HepG2 cells, 24 h exposure, listed as oxaliplatin): 100 µM |
| COc1cc([C@@H]2c3cc4c(cc3[C@@H](O[C@@H]3O[C@@H]5CO[C@@H](C)O[C@H]5[C@H](O)[C@H]3O)[C@H]3COC(=O)[C@H]23)OCO4)cc(OC)c1O [Etoposide] |  | + |  |
| O=P1(NCCCl)OCCCN1CCCl (centres unmarked) [Ifosfamide] |  |  | γ-H2AX MEC/MS (minimum effective concentration) (γ-H2AX in HepG2 cells [1]; HepG2 cells, 24 h exposure): ↑(1000) µM |
| Cc1ncc(CNC(=O)N(CCCl)N=O)c(N)n1 [Nimustine] |  |  | γ-H2AX MEC/MS (minimum effective concentration) (γ-H2AX in HepG2 cells [1]; HepG2 cells, 24 h exposure): ↑(0.01) µM; γ-H2AX MEC/MS (minimum effective concentration) (γ-H2AX in HepG2 cells [1]; HepG2 cells, 24 h exposure, listed as nimustine): 0.01 µM; k (speed of γ-H2AX descending) (γ-H2AX in HepG2 cells [3]): 0.160; t50 (time required for γ-H2AX to drop to half of the maximum value) (γ-H2AX in HepG2 cells [3]): 2.465 h |
| CC[C@@]1(O)C(=O)OCc2c1cc1n(c2=O)Cc2c-1nc1cc(F)c(C)c3c1c2[C@@H](N)CC3 [Exatecan] | 19.2 | + | k (speed of γ-H2AX descending) (γ-H2AX in HepG2 cells [3]): 0.114; t50 (time required for γ-H2AX to drop to half of the maximum value) (γ-H2AX in HepG2 cells [3]): 3.925 h |
| COc1cccc2c1C(=O)c1c(O)c3c(c(O)c1C2=O)C[C@@](O)(C(=O)CO)C[C@@H]3O[C@H]1C[C@H](N)[C@H](O[C@@H]2CCCCO2)[C@H](C)O1 [Pirarubicin] |  | + | maximum γ-H2AX value within the selected concentration range (γ-H2AX in HepG2 cells [1]; HepG2 cells, 24 h): 22; γ-H2AX MEC/MS (minimum effective concentration) (γ-H2AX in HepG2 cells [1]; HepG2 cells, 24 h exposure): ↑(0.01) µM; γ-H2AX MEC/MS (minimum effective concentration) (γ-H2AX in HepG2 cells [1]; HepG2 cells, 24 h exposure, listed as pirarubicin): 0.01 µM |
| O=c1[nH]cc(F)c(=O)[nH]1 [5-fluorouracil] | 5.2 | + |  |
| O=NN(CCCl)C(=O)NCCCl [Carmustine] |  |  | γ-H2AX MEC/MS (minimum effective concentration) (γ-H2AX in HepG2 cells [1]; HepG2 cells, 24 h exposure): ↑(0.01) µM; γ-H2AX MEC/MS (minimum effective concentration) (γ-H2AX in HepG2 cells [1]; HepG2 cells, 24 h exposure, listed as carmustine): 0.01 µM; k (speed of γ-H2AX descending) (γ-H2AX in HepG2 cells [3]): 0.169; t50 (time required for γ-H2AX to drop to half of the maximum value) (γ-H2AX in HepG2 cells [3]): 2.298 h |
| CN(C)/N=N/c1[nH]cnc1C(N)=O [Dacarbazine] | 5.8 | + |  |
| N.N.O=C([O-])C1(C(=O)[O-])CCC1.[Pt+2] [Carboplatin] |  | + | maximum γ-H2AX value within the selected concentration range (γ-H2AX in HepG2 cells [1]; HepG2 cells, 24 h): 7.2; γ-H2AX MEC/MS (minimum effective concentration) (γ-H2AX in HepG2 cells [1]; HepG2 cells, 24 h exposure): ↑(100) µM; γ-H2AX MEC/MS (minimum effective concentration) (γ-H2AX in HepG2 cells [1]; HepG2 cells, 24 h exposure, listed as carboplatin): 100 µM |
| CCC1=C[C@@H]2CN(C1)Cc1c([nH]c3ccccc13)[C@@](C(=O)OC)(c1cc3c(cc1OC)N(C)[C@H]1[C@@](O)(C(=O)OC)[C@H](OC(C)=O)[C@]4(CC)C=CCN5CC[C@]31[C@@H]54)C2 [Vinorelbine] | 3.3 |  | Variation of γ-H2AX (γ-H2AX in HepG2 cells [1]; human, 24 h): no variations of γ-H2AX |
| COc1cc([C@@H]2c3cc4c(cc3[C@@H](O[C@@H]3O[C@@H]5CO[C@@H](c6cccs6)O[C@H]5[C@H](O)[C@H]3O)[C@H]3COC(=O)[C@H]23)OCO4)cc(OC)c1O [Teniposide] | 13.2 | + |  |
| C=C1C[C@@H]2[C@H](CC[C@]3(C)C(=O)CC[C@@H]23)[C@@]2(C)C=CC(=O)C=C12 [Exemestane] | 3.1 | − |  |
| Sc1ncnc2nc[nH]c12 [6-mercaptopurine] | 5.82 | + |  |
| O=C1c2c(O)ccc(O)c2C(=O)c2c(NCCNCCO)ccc(NCCNCCO)c21 [Mitoxantrone] |  | + | k (speed of γ-H2AX descending) (γ-H2AX in HepG2 cells [3]): 0.111; t50 (time required for γ-H2AX to drop to half of the maximum value) (γ-H2AX in HepG2 cells [3]): 7.999 h |
| CCCCCCNC(=O)n1cc(F)c(=O)[nH]c1=O [Carmofur] | 6.3 | + |  |
| N#Cc1ccc(C(c2ccc(C#N)cc2)n2cncn2)cc1 [Letrozole] | 3.1 | − |  |
